From patent US11478451B1, “Macrocyclic chlorine substituted indole derivatives” (Bayer Aktiengesellschaft, priority 2017, dated 2022)
Where a name gives a salt, the structure may show the parent alone. Read-outs that look alike come from different tables or passages of the source.

Experiments:
AMO-1 cells = assay: Antiproliferation assay (CellTiter-Glo, 72 h), AMO-1; format: cell-based; conditions: Homo sapiens, AMO1, 72 h, IC50, median; AMO-1, 72 h; read-out: Antiproli AMO-1 [M] median
Description: Assessment of the Anti-Proliferative Effect of Compounds in Different Cell Lines
The impact of compounds on the proliferation of different cell lines was assessed using the CellTiter-Glo® Luminescent Cell Viability reagent from Promega (G7573).
In parallel, cells were plated in a reference (day 0) plate for time zero determination.
Rim wells were excluded. The cells were incubated for 72 h hours in a humidified incubator at 37° C. The day 0 plate was measured by adding 30 μL/well of CTG solution (CellTiter-Glo® Luminescent Cell Viability reagent, Promega G7573) to time zero wells in the reference plate followed by a 10 minutes incubation and luminescence reading at 0.1 ms. using the PHERAstar FS microplate reader (BMG Labtech).
After 72 h incubation, the treated plates were measured in the same way as the day 0 plate mentioned above.

SUDHL5 cells [1] = assay: Induction of caspase-3/7 activity (Caspase-Glo 3/7), SUDHL5; format: cell-based; conditions: EC50, median, SUDHL5, 3 h treatment
Description: Induction of Caspase-3/7 Activity Upon Treatment of Cells with Selected Compounds
The BH3-domain of MCL-1 sequesters pro-apoptotic proteins, thereby inhibiting apoptosis. In contrast, MCL-1 inhibitors are expected to antagonize this effect leading to an increase in apoptosis, which can be determined by measuring the activity of caspase-3/7.
The activity of caspase-3/7 was determined in DLBCL (Diffuse large B-cell lymphoma) cell lines (SUDHL5 and SUDHL10) upon treatment with different compounds, using the Caspase-Glo® 3/7 reagent from Promega (G8092).
Rim wells were excluded. The cells were incubated for 3 h hours in a humidified incubator at 37° C.
For the evaluation of the results, the background measured with “medium-only” was subtracted from all other values.

SUDHL5 cells [2] = assay: Induction of cytotoxicity (CellTiter-Glo, 5 h), SUDHL5; conditions: SUDHL5, 5 h
Description: Therefore, cytotoxicity assays were run in parallel in SUDHL5 and SUDHL10 cells.
The different cell lines were plated in culture medium (RPMI 1640 [GIBCO #22400-089] supplemented with 10% Fetal Bovine Serum) at a density of 3,300 cells in 30 μL/well in a sterile, solid black, flat bottom, polystyrene, TC-treated 384-well microplate (Corning #3571) using Multidrop Combi Reagent Dispenser. As a control, medium without cells was also added to the plate. Cells were incubated in a humidified incubator at 37° C. overnight. […] Rim wells were excluded. The cells were incubated for 5 h hours in a humidified incubator at 37° C. After this incubation, 30 μL of CellTiter-Glo® Luminescent Cell Viability reagent (Promega, G7573) was added to each well using the Multidrop Combi Reagent Dispenser, followed by 15 min incubation on a shaker at room temperature. Finally, luminescence was read at 0.1 ms, with a gain of 3000 using the PHERAstar FS microplate reader (BMG Labtech).

CCc1c2c(nn1C)CN(C)CCCCn1c(C(=O)O)c(CCCOc3cccc4cc(F)ccc34)c3ccc(Cl)c-2c31 (racemic) [Example 5, (rac)-4-chloro-3-ethyl-7-{3-[(6-fluoronaphthalen-1-yl)oxy]propyl}-2,14-dimethyl-10,11,12,13,14,15-hexahydro-2H-pyrazolo[3′,4′:8,9][1,6]diazacycloundecino[10,11,1-hi]indole-8-carboxylic acid] showed an IC50 (AMO-1 cells) of 6.1e-07 M.

For Cc1c2c(nn1C)COCC1CCC1Cn1c(C(=O)O)c(CCCOc3cccc4ccccc34)c3ccc(Cl)c-2c31 (single isomer, unassigned; stereoisomer 1) [Example 63], the EC50 (SUDHL5 cells [1]) was 9000 nM.

With Cc1c2c(nn1C)COCCCCn1c(C(=O)O)c(CCCOc3cccc4cc(F)ccc34)c3ccc(Cl)c-2c31 (racemic) [Example 14, (rac)-4-chloro-7-{3-[(6-fluoronaphthalen-1-yl)oxy]propyl}-2,3-dimethyl-2,10,11,12,13,15-hexahydropyrazolo[4′,3′:9,10][1,6]oxazacycloundecino[8,7,6-hi]indole-8-carboxylic acid] the IC50 (AMO-1 cells) was 7.4e-07 M.

CCc1c2c(nn1C)CN(C)CCCCn1c(C(=O)O)c(CCCOc3cccc4ccccc34)c3ccc(Cl)c-2c31 (single isomer, unassigned; enantiomer 2) [Example 24, 4-chloro-3-ethyl-2,14-dimethyl-7-[3-(naphthalen-1-yloxy)propyl]-10,11,12,13,14,15-hexahydro-2H-pyrazolo[3′,4′:8,9][1,6]diazacycloundecino[10,11,1-hi]indole-8-carboxylic acid (Enantiomer 2)] gave an EC50 (SUDHL5 cells [1]; Homo sapiens, SU-DHL-5, 3 h) of 4500 nM.

CCc1c2c(nn1C)COCCCCn1c(C(=O)O)c(CCCOc3cccc4cc(F)ccc34)c3ccc(Cl)c-2c31 (racemic) [Example 36, (rac)-4-chloro-3-ethyl-7-{3-[(6-fluoronaphthalen-1-yl)oxy]propyl}-2-methyl-2,10,11,12,13,15-hexahydropyrazolo[4′,3′:9,10][1,6]oxazacycloundecino[8,7,6-hi]indole-8-carboxylic acid] gave an IC50 (AMO-1 cells) of 2.9e-07 M.

Compound CCc1nn(CCN2CCOCC2)c2c1-c1c(Cl)ccc3c(CCCOc4cccc5ccccc45)c(C(=O)O)n(c13)C/C=C\CN(C)C2 (single isomer, unassigned; enantiomer 1) [Example 43, (11Z)-4-chloro-3-ethyl-14-methyl-1-[2-(morpholin-4-yl)ethyl]-7-{3-[(naphthalen-1-yl)oxy]propyl}-10,13,14,15-tetrahydro-1H-pyrazolo[3′,4′:8,9][1,6]diazacycloundecino[10,11,1-hi]indole-8-carboxylic acid-ammonia salt (Enantiomer 1)] has an IC50 (SUDHL5 cells [2]; Homo sapiens, SU-DHL-5, 5 h, read-out: Cytotox SUDHL5 [M] (median), IC50, median) of 6e-07 M.

CCc1nn(CCN2CCOCC2)c2c1-c1c(Cl)ccc3c(CCCOc4cccc5ccccc45)c(C(=O)O)n(c13)CCCCN(C)C2 (single isomer, unassigned; enantiomer 1) [Example 46, 4-chloro-3-ethyl-14-methyl-1-[2-(morpholin-4-yl)ethyl]-7-{3-[(naphthalen-1-yl)oxy]propyl}-10,11,12,13,14,15-hexahydro-1H-pyrazolo[3′,4′:8,9][1,6]diazacycloundecino[10,11,1-hi]indole-8-carboxylic acid (Enantiomer 1)] gave an IC50 (AMO-1 cells) of 5.9e-07 M and an IC50 (SUDHL5 cells [2]; read-out: Cytotox SUDHL5 [M] (median), IC50, median) of 4e-07 M.

CCc1c2c(nn1C)CN(C)CCCCn1c(C(=O)O)c(CCCOc3cccc4ccccc34)c3ccc(Cl)c-2c31 (racemic) [Example 22, (rac)-4-chloro-3-ethyl-2,14-dimethyl-7-[3-(naphthalen-1-yloxy)propyl]-10,11,12,13,14,15-hexa-hydro-2H-pyrazolo[3′,4′:8,9][1,6]diazacycloundecino[10,11,1-hi]indole-8-carboxylic acid] gave an IC50 (AMO-1 cells) of 6.6e-07 M.

Cc1nn(C)c2c1-c1c(Cl)ccc3c(CCCOc4cccc5ccccc45)c(C(=O)O)n(c13)CCCCOC2 (racemic) [Example 2, rac-4-chloro-1,3-dimethyl-7-[3-(naphthalen-1-yloxy)propyl]-1,10,11,12,13,15-hexahydropyrazolo[4′,3′:9,10][1,6]oxazacycloundecino[8,7,6-hi]indole-8-carboxylic acid] was tested, and the IC50 (AMO-1 cells) was 4.9e-06 M.
